Assay type in all cases: functional
The test system of assay [1] is OVCAR-3. Kind of assay: Growth inhibitory activity against OVCAR-3 human cancer cell line.
Assay [2] relates to P388. In words: Inhibitory activity against murine P388 leukemia cell line. The conditions noted are these: Mus musculus, read-out: ED50 (the source's name).
In assay [3] the test system is SF-295. Kind of assay: Growth inhibitory activity against SF-295 human cancer cell line.
Assay [4] relates to A498. In words: Growth inhibitory activity against A498 human cancer cell line.
The test system of assay [5] is SK-MEL-5. In words: Growth inhibitory activity against SK-MEL-5 human cancer cell line.
The test system of assay [6] is NCI-H460. In words: Growth inhibitory activity against NCI-H460 human cancer cell line.
Assay [7] has as its system KM-20L2. In words: Growth inhibitory activity against KM20L2 human cancer cell line.

Molecules are shown by their SMILES. Converted amounts (≈) assume the structure as drawn. Peptide text beside a SMILES is read from it.

By GI50 is commonly meant the concentration at which growth is held to half of that of the control. As to `CC[C@H](C)[C@@H]1NC(=O)[C@H](CC(C)C)NC(=O)[C@@H]2CCCN2C(=O)[C@H](C(C)C)NC(=O)[C@H](Cc2ccc(O)cc2)NC(=O)[C@@H]2CCCN2C(=O)[C@@H]2CCCN2C(=O)[C@H](CC(C)C)NC1=O` [AXINASTATIN 5] (cyclo(ILPPYVPL)), the GI50 in assay [1] (read-out: GI50) was 0.3 µg/mL (≈ 0.336 µM); in assay [3] (read-out: GI50), 1.6 µg/mL (≈ 1.79 µM); in assay [4] (read-out: GI50) it was 2.3 µg/mL (≈ 2.58 µM); in assay [5] (read-out: GI50), 0.5 µg/mL (≈ 0.56 µM); in assay [6], 0.5 µg/mL (≈ 0.56 µM); in assay [7] (read-out: GI50), 0.7 µg/mL (≈ 0.784 µM). For the same compound, the EC50 in assay [2] is 3.5 µg/mL (≈ 3.92 µM).
Turning to `CC[C@H](C)[C@@H]1NC(=O)[C@H](CC(C)C)NC(=O)[C@@H]2CCCN2C(=O)[C@H](C(C)C)NC(=O)[C@H](Cc2ccc(O)cc2)NC(=O)[C@@H]2CCCN2C(=O)[C@@H]2CCCN2C(=O)[C@H]([C@@H](C)CC)NC1=O` [Hymenistatin 1] (cyclo(IIPPYVPL)), the GI50 in assay [1] came to 0.04 µg/mL (≈ 0.0448 µM); in assay [3], 0.3 µg/mL (≈ 0.336 µM); in assay [4], 0.7 µg/mL (≈ 0.784 µM); in assay [5], 0.6 µg/mL (≈ 0.672 µM); in assay [6], 0.3 µg/mL (≈ 0.336 µM); in assay [7], 0.1 µg/mL (≈ 0.112 µM).

For the origin of these results see ChEMBL document CHEMBL1127233, “Isolation and structure of axinastatin 5 from a republic of comoros marine sponge” (1994).
